Measured values published in US20250041249A1, “METHOD OF TREATING LIVER STEATOSIS WITH BIOAVAILABLE FORMULATION OF OLEOYLETHANOLAMIDE” (THE REGENTS OF THE UNIVERSITY OF CALIFORNIA, priority 2021, published 2025).

Key:
[1] = test system: liver inflammation and fibrosis genes; assay: Subchronic i.p. OEA in HFD-fed mice: liver gene transcription (real time PCR); type: in vivo, mouse; conditions: OEA 5 mg/kg i.p. once daily 6 weeks, versus vehicle controls
Description: 18-week-old mice were randomized into two groups; one received standard chow (6.5% kcal fat, Envigo 2020X, Livermore, CA) and the other a high-fat diet (HFD, 60% kcal fat, D12492, Research Diets, New Brunswick, NJ). Both were available ad libitum for 11 weeks. Body weight and food intake were recorded three times per week. Animals from both groups were randomly assigned to three cohorts: a) free feeding, b) fasting (from 6:00 pm to 12:00 pm on the following day) and c) fasting/refeeding (2 hr access to food after fasting). Mice assigned to the fasting and fasting/refeeding groups were housed in bottom-wired cages to prevent coprophagia.
OEA was dissolved in a vehicle of 95% saline/5% Tween80 (v/v) shortly before experiments. It was administered by intraperitoneal (i.p.) injection at 5 mg/kg in a volume of 10 ml/kg.
We extracted total RNA from liver using TRIzol™ reagent (Thermo Fisher Scientific, Waltham, MS) and purified it with the PureLink™ RNA Mini Kit (Invitrogen, Waltham, MS) as directed by the supplier. Prior to purification, samples were passed through a gDNA Eliminator spin column (Qiagen, Germantown, CA). We quantified RNA using NanoDrop 2000/2000-c spectrophotometer (Thermo Fisher Scientific). cDNA was synthesized from […] of total RNA using the High-Capacity cDNA RT Kit with RNase inhibitor (Applied BioSystems, Foster City, CA) following manufacturer's instructions. First-strand cDNA was amplified using TaqMan™ Universal PCR Master Mixture (Thermo Fisher Scientific) Real-time PCR reactions were performed in 96-well plates using the CFX96™ Real-Time System (Bio-Rad, Hercules, CA). The thermal cycling conditions were as follows: initial denaturation set at 95° C. for 10 min, followed by 45 cycles, where each cycle was performed at 95° C. for 30 s followed by 55° C. for 60 s. ΔCt values were calculated using the geometric mean of three different housekeeping genes, and the relative fold changes over control groups (chow-free feed) were calculated by the 2-44Ct method. Real-time PCR primers and fluorogenic probes were purchased from Applied Biosystems (TaqMan (R) Gene Expression Assays, Foster City, CA). We used TaqMan gene expression assays for mouse Actb (Mm00607939_s1), Hprt (Mm00446968_m1), Gapdh (Mm99999915_g1), Tnfa (Mm00443258_m1), Il1b (Mm00434228_m1), Tgfb1 (Mm_01178820_m1), Ccl2 (Mm_00441242_m1) Hmox1 (Mm_00516005_m1), Col1a1 (Mm_00801666_g1), Nqo1 (Mm_01135606_m1), Nrf1 (Mm01135606_m1), Faah (Mm_00515684_m1), and NapepId (Mm_00724596_m1) (Applied Biosystems, Foster City, CA).
Diet-induced obesity is associated with the development of liver steatosis and fibrosis. We asked whether OEA supplementation might correct these alterations in HFD-fed mice, which are defective in endogenous OEA production. We exposed mice to HFD for 5 weeks, randomized them into two groups, and treated them either with OEA (5 mg/kg, once daily) or vehicle for 6 additional weeks of HFD exposure. As expected, OEA administration reduced body weight gain and lowered circulating total cholesterol and liver transaminase levels (Table 2, FIG. 5). These effects were accompanied by improvement in hepatic lipid profile (FIG. 3). […] Transcription of other relevant genes (Nrf1, Tnfa, Tgf1b, Nqo1) was not affected (FIG. 3h-j).

HFD-fed mice = assay: Subchronic i.p. OEA in HFD-fed mice: body weight gain and blood chemistry; type: in vivo, mouse; conditions: OEA 5 mg/kg i.p. once daily for 6 weeks, mean ± S.E.M
Description: 18-week-old mice were randomized into two groups; one received standard chow (6.5% kcal fat, Envigo 2020X, Livermore, CA) and the other a high-fat diet (HFD, 60% kcal fat, D12492, Research Diets, New Brunswick, NJ). Both were available ad libitum for 11 weeks. Body weight and food intake were recorded three times per week. Animals from both groups were randomly assigned to three cohorts: a) free feeding, b) fasting (from 6:00 pm to 12:00 pm on the following day) and c) fasting/refeeding (2 hr access to food after fasting). Mice assigned to the fasting and fasting/refeeding groups were housed in bottom-wired cages to prevent coprophagia. OEA was dissolved in a vehicle of 95% saline/5% Tween80 (v/v) shortly before experiments. It was administered by intraperitoneal (i.p.) injection at 5 mg/kg in a volume of 10 ml/kg. A comprehensive blood chemistry panel was performed at Antech Diagnostics (Irvine, CA). Diet-induced obesity is associated with the development of liver steatosis and fibrosis. We asked whether OEA supplementation might correct these alterations in HFD-fed mice, which are defective in endogenous OEA production. We exposed mice to HFD for 5 weeks, randomized them into two groups, and treated them either with OEA (5 mg/kg, once daily) or vehicle for 6 additional weeks of HFD exposure. As expected, OEA administration reduced body weight gain and lowered circulating total cholesterol and liver transaminase levels (Table 2, FIG. 5). These effects were accompanied by improvement in hepatic lipid profile (FIG. 3). […] Transcription of other relevant genes (Nrf1, Tnfa, Tgf1b, Nqo1) was not affected (FIG. 3h-j).

PPAR-α [2] = molecular target: T1, PPAR-α (Homo sapiens, UniProt Q07869); conditions: PPAR-α agonist; read-out: median effective concentration, EC50; cited from earlier work
T1 sequence (Q07869 1-468): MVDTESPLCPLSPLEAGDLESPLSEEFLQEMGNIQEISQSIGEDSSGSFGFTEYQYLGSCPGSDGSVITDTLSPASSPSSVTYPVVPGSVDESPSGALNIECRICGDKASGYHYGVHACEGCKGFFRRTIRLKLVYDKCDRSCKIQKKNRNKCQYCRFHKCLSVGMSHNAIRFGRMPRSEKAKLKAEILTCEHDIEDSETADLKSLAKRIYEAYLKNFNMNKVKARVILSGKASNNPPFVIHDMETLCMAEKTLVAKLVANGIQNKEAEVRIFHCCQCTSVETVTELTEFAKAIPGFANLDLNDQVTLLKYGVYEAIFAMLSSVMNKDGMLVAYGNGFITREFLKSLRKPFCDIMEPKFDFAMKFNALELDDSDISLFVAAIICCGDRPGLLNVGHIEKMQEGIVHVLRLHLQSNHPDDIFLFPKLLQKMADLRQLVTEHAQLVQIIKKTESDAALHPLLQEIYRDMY

PPAR-α [3] = molecular target: T1, PPAR-α; conditions: read-out: affinity constant, KD; cited from earlier work
liver of HFD-fed mice = assay: Subchronic i.p. OEA in HFD-fed mice: liver lipid accumulation (Oil Red O, BODIPY, triglyceride kit); type: in vivo, mouse; conditions: OEA 5 mg/kg i.p. once daily 6 weeks, versus vehicle controls
Description: 18-week-old mice were randomized into two groups; one received standard chow (6.5% kcal fat, Envigo 2020X, Livermore, CA) and the other a high-fat diet (HFD, 60% kcal fat, D12492, Research Diets, New Brunswick, NJ). Both were available ad libitum for 11 weeks. Body weight and food intake were recorded three times per week. Animals from both groups were randomly assigned to three cohorts: a) free feeding, b) fasting (from 6:00 pm to 12:00 pm on the following day) and c) fasting/refeeding (2 hr access to food after fasting). Mice assigned to the fasting and fasting/refeeding groups were housed in bottom-wired cages to prevent coprophagia. OEA was dissolved in a vehicle of 95% saline/5% Tween80 (v/v) shortly before experiments. It was administered by intraperitoneal (i.p.) injection at 5 mg/kg in a volume of 10 ml/kg. Liver triglycerides were quantified using a colorimetric assay kit (Cayman Chemicals). Briefly, ˜30 mg of right liver lobe were mixed with 0.2 mL of assay buffer and processed following manufacturer's instructions. Oil Red O Staining: We embedded liver samples in a mold, cut them into 7-μm thick sections with a cryostat and fixed them with 4% paraformaldehyde (PFA) for 15 min. After fixation, we immersed the sections in phosphate-buffered saline (PBS) for 2 min, placed them in isopropanol (60%) for 2 min, and incubated them with Oil Red O (60% in isopropanol) for 30 min. […]

CCCCCCCC/C=C\CCCCCCCC(=O)NCCO [OEA, oleoylethanolamide]
liver transcription of C-C Motif Chemokine Ligand 2 (Ccl2) [1]: attenuated | liver transcription of Nqo1 [1]: not affected | liver transcription of Nrf1 [1]: not affected | liver transcription of Tgf1b [1]: not affected | liver transcription of Tnfa [1]: not affected | liver transcription of collagen type I a1 (Col1a1) [1]: attenuated | liver transcription of heme oxygenase 1 (Hmox1) [1]: enhanced | liver transcription of interleukin 1B (1/1b) [1]: attenuated | A Body weight (HFD-fed mice): 2.27 ± 0.5 g | ALT (SPGT) (HFD-fed mice): 45.4 ± 6.9 IU/L | AST (SGOT) (HFD-fed mice): 86.1 ± 9.9 IU/L | Cholesterol (HFD-fed mice): 173.6 ± 7.6 mg/dL | Glucose (HFD-fed mice): 250.5 ± 19.1 mg/dL | Triglyceride (HFD-fed mice): 81.0 ± 4.9 mg/dL | EC50 (PPAR-α [2]): ~120 nM | Kd (PPAR-α [3]): ~40 nM | liver lipid content (Oil Red O and BODIPY staining of liver sections) (liver of HFD-fed mice): reduced | liver triglyceride content (liver of HFD-fed mice): lower
